Three compounds from patent US20180244653A1, “SELECTIVE ALPHA-7 NICOTINIC RECEPTOR AGONISTS AND METHODS FOR MAKING AND USING THEM” (THE REGENTS OF THE UNIVERSITY OF CALIFORNIA, priority 2015, published 2018) can be followed below.

“Also recorded” adds a separate entry of the source.

Format in all cases: in vivo
Series [1] has as its system scopolamine-induced amnesic mice. In words: Modified Y-maze test. Conditions: for Unfamiliar arm exploration / cognitive deficit, modified Y-maze vs scopolamine-treated group: i.p. 1 h before, scopolamine 1 mg/kg, doses as in the sentence; for Fold lower effective dose than PNU-282987, modified Y-maze: mouse, in vivo; for Minimum effective dose, Modified Y-maze: scopolamine induced amnesia model, ICR mice, i.p. The method, then:
The modified Y-maze test was performed to evaluate spatial working memory. The experiment was divided into 3 sessions; (i) IND8 at 5, 10, and 50 μmol/kg or 1.5, 2.9, and 14.7 mg/kg doses, (ii) QND8 at 5, 10, and 50 μmol/kg or 1.4, 2.7, 13.5 mg/kg doses, and (iii) IND8 and QND8 at dose of 25 μmol/kg or 7.3 and 6.8 mg/kg, respectively and PNU-282987 at […] or 3, 10 mg/kg doses.
FIG. 21 illustrates the percentage of unfamiliar arm exploration in modified Y-maze of IND8 (FIG. 21A), QND8 (FIG. 21B), and IND8, QND8, PNU-282987 (FIG. 21C). IND8, QND8, PNU-282987, vehicle (15% Tween80, SH) and tacrine (TC) were injected 1 h and scopolamine (SC) 30 min before sample phase, respectively. Each mouse was placed at the end of one arm and allowed to access 2 arms of Y-maze for 5 min in sample phase. After a 30 min period, the mouse was allowed to explore 3 arms for 5 min. The number of entries for each arm was recorded and the percentage of unfamiliar arm exploration was calculated. Data represented in means±standard errors (SE).
Male ICR mice (6-weeks of age) were housed in 5 per cage with free access to food and tap water under 12 h light and dark cycle (light on 6:00 to 18:00) in a temperature and humidity controlled room. They were acclimated in a laboratory at least 7 days prior to starting experiments. The experimental protocols were approved by the Animal Care and Use Committee of KhonKaen University, Thailand.
Tacrine hydrochloride (Sigma-Aldrich, St. Louis, Mo.), PNU-282987 hydrochloride (Alamone, Jerusalem, Israel) and test compounds were prepared as suspensions by using 15% tween 80 in distilled water as a vehicle, whereas scopolamine hydrochloride (Sigma-Aldrich, St. Louis, Mo.) and methyllycaconitine citrate (MLA) (Abcam, Cambridge, England) were prepared as a solution by dissolving with 0.9% normal saline solution (NSS). All compounds were administered by intraperitoneal (i.p.) injection in the amount of 5 mL/kg. Test compounds were injected 1 h and scopolamine was administered 30 min before the experiments, whereas MLA was injected 5 min before the test compounds.
(§1) Amnesia was induced pharmacologically in mice via scopolamine injection (single dose) for 30 min prior to start the experiments. They were divided into vehicle group: receiving 15% tween 80 and 0.9% NSS, amnesia group: receiving scopolamine 1 mg/kg, standard positive control group receiving tacrine 1 mg/kg, and test group: receiving IND8, QND8 at dose 5, 10, 25, 50 μmol/kg, or PNU-282987 3, 10 mg/kg, single dose. All mice were acclimated in an experimental room at least 30 min before the experiments.
The maze in this experiment is the same apparatus using in locomotor activity test except there is the black partition to close one of three arms. The mice were randomly separated into different treatment groups. They were injected with test compounds and scopolamine at 1 h and 30 min, respectively, before the sample phase. In this phase which one arm of Y-maze was closed by the black partition, each mouse was placed at the end of one arm and allowed to move through 2 arms for 5 min to get familiar with the two opened arms. After 30 min of resting, all arms were opened and the mouse was allowed to move freely through all 3 arms. The maze area and the partition were cleaned with 70% ethanol between each experiment to remove olfactory cues. The number of entries in each arm was counted visually if mice accessed into each arm at least 10 cm. The percentage of unfamiliar arm exploration was calculated as following equation: […]

Series [2] relates to mice. The series is described as follows: Locomotor activity test (Y-maze). Conditions: all tested doses, i.p., 1 h before. How it is done: A black polyvinyl chloride Y-maze, which was 40 cm long, 3 cm wide at the bottom and 10 cm wide at the top, and 12 cm high in each arm, was used to study the effect of synthesized compounds on locomotor activity. Each mouse was placed at the end of one arm and was allowed to move freely in Y-maze for 8 min after 1 h injection of vehicle or test compounds. The number of entries to all arms was recorded visually if mice accessed into each arm at least 10 cm from the middle of the maze.
Figure S1. Locomotor activity testing of IND8 (A) and QND8 (B). Mice were injected vehicle or test compounds 1 h before moving freely in Y-maze for 8 min. The number of entries into 3 arms was recorded. The one-way ANOVA was used to evaluate the different result between test and vehicle groups.

Series [3] deals with scopolamine-induced amnesic mice. In words: Object recognition test (ORT). Conditions: i.p.; for Discrimination index / episodic short-term memory, ORT vs scopolamine-treated group: tacrine 1 mg/kg, IND8, QND8 10 and 50 μmol/kg; for Minimum effective dose, ORT: scopolamine induced amnesia model, ICR mice. How it is done: FIG. 22 illustrates exploration time to familiar (F) and novel (N) objects of IND8 (A) and QND8 (B) in test phase of ORT. Each mouse was allowed to explore an open field apparatus for 5 min in a habituation phase. After a 24 h period, IND8, QND8, PNU-282987, vehicle (15% Tween80, SH) and tacrine (TC) were injected 1 h and scopolamine (SC) 30 min before sample phase, respectively. Each mouse explored 2 identical objects in the sample phase for 5 min and then placed in its cage for 10 min before the test phase began. In the 5 min of test phase, one of the objects was changed to a new one. The exploration time of these objects was recorded.
In both data sets, a discrimination index (DI) was calculated and used to evaluate the ability of mice to discriminate between familiar and novel objects. Data are represented in FIG. 23.
as §1
The apparatus was made of black polyvinyl chloride (52×52×40 cm). The objects used in this experiment had different visual shapes and colors to be discriminated. They were placed 10 cm from the side wall in the balanced manner. The box area and objects were cleaned with 70% ethanol between each experiment to remove odor cues.
The mice were randomly divided into different treatment groups. They were allowed to freely explore the open field apparatus for 5 min for habituation in the day prior to the experiments to get familiar with the apparatus. On the experimental day, test compounds injected 1 h, whereas scopolamine administered 30 min before the sample phase (acquisition trial). The mice were placed in the apparatus to explore 2 identical objects. After 10 min of acclimation in their cages, one object was changed to a new one, and mice were allowed to explore these objects for 5 min in the test phase (retention trial). The exploration time of each object was recorded if the nose of mice approached the objects within 3 cm or touched the objects. The discrimination index (DI) was calculated by using (TN−TF)/(TN+TF); TN and TF represented exploration time of new and familiar objects, respectively.

For the compound `c1cc2cc(-c3cn(C4CN5CCC4CC5)nn3)ccc2[nH]1` (stereo not shown) [IND8, 5-((Quinuclid-3-yl)-1H-1,2,3-triazol-4-yl)-1H-indole], in series [1], the “Unfamiliar arm exploration / cognitive deficit, modified Y-maze vs scopolamine-treated group” value was “reversed the cognitive deficit induced by scopolamine”; the “Fold lower effective dose than PNU-282987, modified Y-maze” value is recorded as “seven-fold”; the “Minimum effective dose, Modified Y-maze” value is 5 µmol/kg. For the same compound, in series [2], the “Locomotor activity (number of arm entries) vs vehicle” value is “neither a reduction nor an increase in locomotor activity was observed; also recorded: no significant difference”. For the same compound, in series [3], the “Discrimination index / episodic short-term memory, ORT vs scopolamine-treated group” value is “significantly improved episodic short-term memory” and the “Minimum effective dose, ORT” value came to 10 µmol/kg.
Take `O=C(N[C@H]1CN2CCC1CC2)c1ccc(Cl)cc1` [PNU-282987, reference compound]: the “Minimum effective dose, Modified Y-maze” value in series [1] is 33 µmol/kg.
Regarding `Oc1ccc(-c2cn(C3CN4CCC3CC4)nn2)cc1` (stereo not shown) [QND8, 3-(4-hydroxyphenyl-1,2,3-triazol-1-yl) quinuclidine], in series [1], the “Unfamiliar arm exploration / cognitive deficit, modified Y-maze vs scopolamine-treated group” value is on record as “improved the cognitive deficit significantly only at the 2.7 mg/kg dose”; the “Fold lower effective dose than PNU-282987, modified Y-maze” value is given as “four-fold”; the “Minimum effective dose, Modified Y-maze” value came to 10 µmol/kg. Further, the “Locomotor activity (number of arm entries) vs vehicle” value in series [2] is “neither a reduction nor an increase in locomotor activity was observed; also recorded: no significant difference”. Besides, in series [3], the “Discrimination index / episodic short-term memory, ORT vs scopolamine-treated group” value is recorded as “significantly improved episodic short-term memory” and the “Minimum effective dose, ORT” value was determined as 10 µmol/kg.
